This series is described as follows: Log P by HPLC on reversed phase columns (EEC directive 79/831 Annex V.A8). Format: physicochemical. On the procedure: Measurement of Log P values was performed according to EEC directive 79/831 Annex V.A8 by HPLC (High Performance Liquid Chromatography) on reversed phase columns with the following methods:
Calibration was done with straight-chain alkan2-ones (with 3 to 16 carbon atoms) with known Log P values (measurement of Log P values using retention times with linear interpolation between successive alkanones). Lambda-max-values were determined using UV-spectra from 200 nm to 400 nm and the peak values of the chromatographic signals.

`CCN(C)/C=N/c1cc(C)c(Oc2ccccc2)cc1Br` [Compound (I-4), N′-(2-bromo-5-methyl-4-phenoxyphenyl)-N-ethyl-N-methylimidoformamide]: the chromatographic logP (as a rule, a lipophilicity value derived from retention on a column) ([a] LC-UV, acidic range, 0.1% formic acid in water and acetonitrile as eluent) was 4.38; the chromatographic logP ([b] LC-UV, neutral range, 0.001 molar ammonium acetate solution in water and acetonitrile as eluent) came out at 4.33.

These data come from patent publication US20190313638A1, “ACTIVE COMPOUND COMBINATIONS” (priority 2016, published 2019).
